Laboratory results published in article PMC9103815, “Phytochemical Analysis, α-Glucosidase and α-Amylase Inhibitory Activities and Acute Toxicity Studies of Extracts from Pomegranate (Punica granatum) Bark, a Valuable Agro-Industrial By-Product” (Foods, 2022).

Target: T1, pancreatic α-amylase (Homo sapiens, UniProt P04746)
T1 construct: purchased Sigma-Aldrich
T1 sequence (P04746 16-511): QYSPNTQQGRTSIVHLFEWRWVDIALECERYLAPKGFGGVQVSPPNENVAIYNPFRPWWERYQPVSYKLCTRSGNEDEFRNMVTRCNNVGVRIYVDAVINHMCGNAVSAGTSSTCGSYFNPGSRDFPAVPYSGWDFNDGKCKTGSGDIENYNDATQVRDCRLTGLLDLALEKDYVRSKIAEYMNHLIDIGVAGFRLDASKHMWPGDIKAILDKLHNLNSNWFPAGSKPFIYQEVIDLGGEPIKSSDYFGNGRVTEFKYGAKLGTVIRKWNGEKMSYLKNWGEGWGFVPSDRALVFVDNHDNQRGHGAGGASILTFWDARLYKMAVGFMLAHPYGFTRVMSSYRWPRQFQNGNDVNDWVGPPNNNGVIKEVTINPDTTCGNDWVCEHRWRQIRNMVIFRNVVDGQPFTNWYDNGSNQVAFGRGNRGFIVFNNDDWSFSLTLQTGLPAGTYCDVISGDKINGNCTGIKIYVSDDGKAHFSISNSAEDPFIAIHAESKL
Assay: In vitro inhibition of pancreatic α-amylase (starch, DNSA)
Assay type: biochemical
Conditions: pure commercial standards; triplicate; Figure 7 A-C
Description: Pancreatic α-amylase inhibition activity was assessed according to the method described by Daoudiet al. [25]. […] The solutions were prepared by dissolving the enzymes and samples in a phosphate buffer solution (0.1 M, pH 6.9). The mixtures were incubated for 10 min at 37 °C. Next, 200 μL of 1% starch also dissolved in a phosphate buffer was added to the reaction mixture, and all test tubes were incubated for another 20 min at 37 °C. To stop the reaction, 600 μL of DNSA (1 g of 3,5-dinitrosalicylic acid dissolved in 20 mL of NaOH(2N), combined with 30 g of KNaC4H4O6, and filled up to 100 mL with distilled water) was added. Afterward, the mixture was posed in a water bath at 100 °C for 8 min, then it was put in an ice-cold-water bath for a few minutes. About 1 mL of distilled water was added to the sample tubes before their absorbance measurement at 540 nm.
The percentage of inhibition was computed using the following formula:(2) Inhibitory activity (%)=Abs control 540 nm− Abs sample 540 nm/Abs control 540 nm×100
Increasing concentrations were utilized to calculate the IC50 value. The enzymatic assays were carried out as indicated above.

Structure (SMILES)	IC50 [µM]
Oc1cc(O)c2c(c1)O[C@@H](c1ccc(O)c(O)c1)[C@H](O)C2 [Catechin, (−)-catechin]	30.8 ± 2.11
O=c1oc2c(O)c(O)cc3c(=O)oc4c(O)c(O)cc1c4c23 [Ellagic acid]	29.4 ± 4.57
